Entries after “also recorded” stand apart in the source; their conditions may differ. Square brackets hold non-standard residues; d marks the D form. Ends that are not written are not given here. Peptide text beside a SMILES is read from it. Phe(4-F) = N[C@@H](Cc1ccc(F)cc1)C(=O)O
system: T cell lines against natural epitope SSX-241-49; experiment: Cross-reactivity and functional avidity: IFN-gamma production by T cell lines raised against natural SSX-2 41-49; type: cell-based, HHD transgenic mice; settings: T cells raised to native peptide tested on analogs; footnote * and unit not given;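 also: analogs presented ex vivo by competent APCs to T cells specific for the non-mutated epitope, scored by lowest activating concentration, peak cytokine effect and concentration at that peak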

Row | Compound | Cross-reactivity and fct avidity (native to analogs)*
1 | CC[C@H](C)[C@H](NC(=O)[C@H](CCCCN)NC(=O)[C@H](CCC(=O)O)NC(=O)[C@H](CO)NC(=O)[C@@H](NC(=O)[C@@H](N)Cc1ccccc1)C(C)C)C(=O)N[C@@H](Cc1ccccc1)C(=O)N[C@@H](Cc1ccc(O)cc1)C(=O)N[C@@H](CC(C)C)C(=O)O [SSX2 41-49 (K41F, A42V, V49L)] | >10
2 | CC[C@H](NC(=O)[C@@H](N)CCCCN)C(=O)N[C@@H](CO)C(=O)N[C@@H](CCC(=O)O)C(=O)N[C@@H](CCCCN)C(=O)N[C@H](C(=O)N[C@@H](Cc1ccccc1)C(=O)N[C@@H](Cc1ccc(O)cc1)C(=O)N[C@H](C(=O)O)C(C)C)[C@@H](C)CC [SSX2 41-49 (A42(Abu)), KAbuSEKIFYV] | 0.3
3 | K(D-Ala)SEKIFYV [SSX2 41-49 (A42(D-Ala))] | 10
4 | CCC[C@H](NC(=O)[C@@H](N)CCCCN)C(=O)N[C@@H](CO)C(=O)N[C@@H](CCC(=O)O)C(=O)N[C@@H](CCCCN)C(=O)N[C@H](C(=O)N[C@@H](Cc1ccccc1)C(=O)N[C@@H](Cc1ccc(O)cc1)C(=O)N[C@H](C(=O)O)C(C)C)[C@@H](C)CC [SSX2 41-49 (A42(Nva)), KNvaSEKIFYV] | 0.1
5 | CC[C@H](C)[C@H](NC(=O)[C@H](CCCCN)NC(=O)[C@H](CCC(=O)O)NC(=O)[C@H](CO)NC(=O)[C@H](CC(C)C)NC(=O)[C@H](N)CCCCN)C(=O)N[C@@H](Cc1ccccc1)C(=O)N[C@@H](Cc1ccc(O)cc1)C(=O)N[C@H](C(=O)O)C(C)C [SSX2 41-49 (K41(D-Lys), A42L)] | 10
6 | FVSNKIFYV [SSX2 41-49 (K41F, A42V, E44N)] | >10
7 | CC[C@H](C)[C@H](NC(=O)[C@H](CCCCN)NC(=O)[C@H](CCC(=O)O)NC(=O)[C@H](CO)NC(=O)[C@H](CC(C)C)NC(=O)[C@@H](N)Cc1ccccc1)C(=O)N[C@@H](Cc1ccccc1)C(=O)N[C@@H](Cc1ccc(O)cc1)C(=O)N[C@H](C(=O)O)C(C)C [SSX2 41-49 (K41F, A42L)] | 0.3
8 | CCCC[C@H](NC(=O)[C@@H](N)CCCCN)C(=O)N[C@@H](CO)C(=O)N[C@@H](CCC(=O)O)C(=O)N[C@@H](CCCCN)C(=O)N[C@H](C(=O)N[C@@H](Cc1ccccc1)C(=O)N[C@@H](Cc1ccc(O)cc1)C(=O)N[C@H](C(=O)O)C(C)C)[C@@H](C)CC [SSX2 41-49 (A42(Nle)), KNleSEKIFYV] | 0.1
9 | CC[C@H](C)[C@H](NC(=O)[C@H](CCCCN)NC(=O)[C@H](CCC(=O)O)NC(=O)[C@H](CO)NC(=O)[C@@H](NC(=O)[C@@H](N)Cc1ccccc1)C(C)C)C(=O)N[C@@H](Cc1ccccc1)C(=O)N[C@@H](Cc1ccc(O)cc1)C(=O)N(C)[C@H](C(=O)O)C(C)C [SSX2 41-49 (K41F, A42V, V49MeVal)] | 10
10 | KLSEKIFYV [SSX2 41-49-NH2 (A42L)] | 3
11 | CC[C@H](C)[C@H](NC(=O)[C@H](CCCCN)NC(=O)[C@H](CO)NC(=O)[C@H](CO)NC(=O)[C@@H](NC(=O)[C@@H](N)Cc1ccccc1)C(C)C)C(=O)N[C@@H](Cc1ccccc1)C(=O)N[C@@H](Cc1ccc(O)cc1)C(=O)N[C@H](C(=O)O)C(C)C [SSX2 41-49 (K41F, A42V, E44S)] | >10
12 | CC[C@H](C)[C@H](NC(=O)[C@H](CCCCN)NC(=O)[C@H](CCC(=O)O)NC(=O)[C@H](CO)NC(=O)[C@H](Cc1ccc2ccccc2c1)NC(=O)[C@@H](N)CCCCN)C(=O)N[C@@H](Cc1ccccc1)C(=O)N[C@@H](Cc1ccc(O)cc1)C(=O)N[C@H](C(=O)O)C(C)C [SSX2 41-49 (A42(Nal-2)), KNal-2SEKIFYV] | 3
13 | CC[C@H](C)[C@H](NC(=O)[C@H](CCCCN)NC(=O)[C@H](CCC(=O)O)NC(=O)[C@H](CO)NC(=O)[C@H](CCSC)NC(=O)[C@@H](N)Cc1ccccc1)C(=O)N[C@@H](Cc1ccccc1)C(=O)N[C@@H](Cc1ccc(O)cc1)C(=O)N[C@H](C(=O)O)C(C)C [SSX2 41-49 (K41F, A42M)] | 3
14 | KVSEKIFYI [SSX2 41-49 (A42V, V49I)] | 0.3
15 | CC[C@H](C)[C@H](NC(=O)[C@H](CCCCN)NC(=O)[C@H](CCC(=O)O)NC(=O)[C@H](CO)NC(=O)[C@H](CC(C)C)NC(=O)[C@@H](N)CCCCN)C(=O)N[C@@H](Cc1ccccc1)C(=O)N[C@@H](Cc1ccc(O)cc1)C(=O)N[C@H](C(=O)O)C(C)C [SSX2 41-49 (A42L)] | 0.03
16 | CC[C@H](C)[C@H](NC(=O)[C@H](CCCCN)NC(=O)[C@H](CCC(=O)O)NC(=O)[C@H](CO)NC(=O)C(C)(C)NC(=O)[C@@H](N)CCCCN)C(=O)N[C@@H](Cc1ccccc1)C(=O)N[C@@H](Cc1ccc(O)cc1)C(=O)N[C@H](C(=O)O)C(C)C [SSX2 41-49 (A42(Aib)), KAibSEKIFYV] | 3
17 | KVSEKIFYV [SSX2 41-49-NH2 (A42V)] | 10
18 | FVSEKVFYV (T cell peptide epitope analog) [SSX2 41-49 (K41F, A42V, I46V)] | 1

Row | Compound | Cross-reactivity and fct avidity (native to analogs)*
19 | CC[C@H](C)[C@H](NC(=O)[C@H](CCCCN)NC(=O)[C@H](CCC(=O)O)NC(=O)[C@H](CO)NC(=O)[C@@H](NC(=O)[C@@H](N)Cc1c[nH]c2ccccc12)[C@@H](C)CC)C(=O)N[C@@H](Cc1ccccc1)C(=O)N[C@@H](Cc1ccc(O)cc1)C(=O)N[C@H](C(=O)O)C(C)C [SSX2 41-49 (K41W, A42I)] | 0.1
20 | FVSEKMFYV [SSX2 41-49 (K41F, A42V, I46M)] | >10
21 | CC[C@H](C)[C@H](NC(=O)[C@H](CCCCN)NC(=O)[C@H](CCC(=O)O)NC(=O)[C@H](CO)NC(=O)[C@@H](NC(=O)[C@@H](N)Cc1ccc(O)cc1)[C@@H](C)CC)C(=O)N[C@@H](Cc1ccccc1)C(=O)N[C@@H](Cc1ccc(O)cc1)C(=O)N[C@H](C(=O)O)C(C)C [SSX2 41-49 (K41Y, A42I)] | 1
22 | CC[C@H](C)[C@H](NC(=O)[C@H](CCCCN)NC(=O)[C@H](CCC(=O)O)NC(=O)[C@H](CO)NC(=O)[C@H](C)NC(=O)[C@@H](N)Cc1c[nH]c2ccccc12)C(=O)N[C@@H](Cc1ccccc1)C(=O)N[C@@H](Cc1ccc(O)cc1)C(=O)N[C@H](C(=O)O)C(C)C [SSX2 41-49 (K41W)] | >10
23 | CC[C@H](C)[C@H](NC(=O)[C@H](CCCCN)NC(=O)[C@H](CCC(=O)O)NC(=O)[C@H](CO)NC(=O)[C@H](C)NC(=O)[C@@H](N)Cc1ccc(F)cc1)C(=O)N[C@@H](Cc1ccccc1)C(=O)N[C@@H](Cc1ccc(O)cc1)C(=O)N[C@H](C(=O)O)C(C)C [SSX2 41-49 (K41(Phe-4F))] (H-[Phe(4-F)]ASEKIFYV-OH) | 3
24 | KASEKIFYV [SSX2 41-49-NH2] | >10
25 | FVSEKLFTA | >10
26 | FVSEKIFY(Aib) [SSX2 41-49 (K41F, A42V, V49Aib)] | >10
27 | CC[C@H](C)[C@H](NC(=O)[C@H](CCCCN)NC(=O)[C@H](CCC(=O)O)NC(=O)[C@H](CO)NC(=O)[C@H](C)NC(=O)[C@@H](N)CCCCN)C(=O)N[C@@H](Cc1ccccc1)C(=O)N[C@@H](Cc1ccc(O)cc1)C(=O)N[C@H](C(=O)O)C(C)C [SSX2 41-49, reference compound] | 1
28 | CC[C@H](C)[C@H](NC(=O)[C@H](CCCCN)NC(=O)[C@H](CCC(=O)O)NC(=O)[C@H](CO)NC(=O)[C@@H](NC(=O)[C@@H](N)Cc1ccccc1)C(C)C)C(=O)N[C@@H](Cc1ccccc1)C(=O)N[C@@H](Cc1ccc(O)cc1)C(=O)N[C@@H](C)C(=O)O [SSX2 41-49 (K41F, A42V, V49A)] | 1
29 | CC[C@H](C)[C@H](NC(=O)[C@H](CCCCN)NC(=O)[C@H](CCC(=O)O)NC(=O)[C@H](CO)NC(=O)[C@@H](NC(=O)[C@H](N)CCCCN)C(C)C)C(=O)N[C@@H](Cc1ccccc1)C(=O)N[C@@H](Cc1ccc(O)cc1)C(=O)N[C@H](C(=O)O)C(C)C [SSX2 41-49 (K41(D-Lys), A42V)] | 10
30 | K(D-Val)SEKIFYV [SSX2 41-49 (A42(D-Val))] | 3
31 | KNal-1SEKIFYV [SSX2 41-49 (A42(Nal-1))] | >10
32 | CCC[C@H](NC(=O)[C@H](Cc1ccc(O)cc1)NC(=O)[C@H](Cc1ccccc1)NC(=O)[C@@H](NC(=O)[C@H](CCCCN)NC(=O)[C@H](CCC(=O)O)NC(=O)[C@H](CO)NC(=O)[C@@H](NC(=O)[C@@H](N)Cc1ccccc1)C(C)C)[C@@H](C)CC)C(=O)O [SSX2 41-49 (K41F, A42V, V49Nva)] | 0.1
33 | CC[C@H](NC(=O)[C@H](Cc1ccc(O)cc1)NC(=O)[C@H](Cc1ccccc1)NC(=O)[C@@H](NC(=O)[C@H](CCCCN)NC(=O)[C@H](CCC(=O)O)NC(=O)[C@H](CO)NC(=O)[C@@H](NC(=O)[C@@H](N)Cc1ccccc1)C(C)C)[C@@H](C)CC)C(=O)O [SSX2 41-49 (K41F, A42V, V49Abu)] | 1
34 | CCCC[C@H](NC(=O)[C@H](Cc1ccc(O)cc1)NC(=O)[C@H](Cc1ccccc1)NC(=O)[C@@H](NC(=O)[C@H](CCCCN)NC(=O)[C@H](CCC(=O)O)NC(=O)[C@H](CO)NC(=O)[C@@H](NC(=O)[C@@H](N)Cc1ccccc1)C(C)C)[C@@H](C)CC)C(=O)O [SSX2 41-49 (K41F, A42V, V49Nle)] | >10
35 | CC[C@H](C)[C@H](NC(=O)[C@H](CCCCN)NC(=O)[C@@H](NC(=O)[C@H](CO)NC(=O)[C@@H](NC(=O)[C@@H](N)Cc1ccccc1)C(C)C)[C@@H](C)O)C(=O)N[C@@H](Cc1ccccc1)C(=O)N[C@@H](Cc1ccc(O)cc1)C(=O)N[C@H](C(=O)O)C(C)C [SSX2 41-49 (K41F, A42V, E44T)] | >10

same assay, conditions: compared with wild-type peptide

Row | Compound | activity in cross-reactivity assay (IFN-gamma production by wild-type SSX-2 41-49 specific T cells), in words
36 | KLSEKIFYV [SSX2 41-49-NH2 (A42L)] | lower concentration
37 | KASEKIFYVY (T cell peptide epitope analog) [SSX-241-50, wild-type SSX-2 41-50 decamer, reference compound] | no immunological activity; also recorded: significantly less active

Reference: patent publication US7511119B2, “PRAME peptide analogues” (MannKind Corporation, priority 2005, dated 2009)
